Patent US9670155B2, “Pyrrolidine derivatives as oxytocin/vasopressin V1a receptors antagonists” (ObsEva S.A., priority 2013, dated 2017)

What was measured:
[1] = system: spontaneous uterine contractions; test: Inhibition of spontaneous uterine contractions in anesthetized late-term pregnant rat; format: in vivo; details: oral route, 10, 30 or 60 mg/kg
Source text: Late-term pregnant (certified at days 19-21 of pregnancy) Sprague Dawley CD (SD) BR female rats (Charles River, Calco, Italy), weighing 350-400 g were anesthetized with urethane (1.05 g/kg, i.p.) and placed on a homeothermic operating table. A midline incision at the hypogastrium level was made, one pregnant uterine horn exposed and its tubal end (near the ovary) was closed by a ligature with surgical silk. Corresponding to the fetus close to the ovary, the uterine-horn wall was incised taking care not to injure the adjacent placenta and PE240 tubing with a latex balloon (9 mm length when empty, capacity 0.1 mL; Radnoti, Monrovia, Calif., USA) on the top was inserted into the lumen and secured to the uterine wall with surgical silk. After filling the internal cavity of the latex balloon with 0.1 mL of sterile physiological saline solution, the catheter was connected to an amplifying/recording system (MacLab, ADInstruments Pty Ltd, Castle Hill, Australia) via a P231D Gould-Statham pressure transducer. […] After the surgical preparation, a 30-min stabilization period was observed and then the effects of increasing doses of compounds of the present invention (given as 10-min i.v. infusion, bolus i.v. or p.o.) were evaluated by measuring the resulting uterine contractions. For the i.v. administration (infusion or bolus) the uterine contractile activity was quantified by calculating the AUC during the 10-min injection period. The percent variation of the AUC values relative to the spontaneous uterine response observed after each compound administration was calculated in comparison to the value recorded before the first dose-administration (basal value). The effect of test compounds of the present invention was evaluated by comparing pre- and post-treatment luminal uterine pressure values. […] Statistical differences between treatment groups at each time-point were determined by using one-way ANOVA followed by Tukey test. […] Contractions were continuously recorded and area-under-the-curve (AUC) integrated over 10-min time intervals.

[2] = Isomeric interconversion in oral and intravenous dose formulations (HPLC); format: physicochemical; details: oral (Labrasol:water 1:1) and intravenous (NP3S) dose formulations, pre- and post-dose
[3] = Qualitative solubility/crystallisation tests on 15 mg scale; format: physicochemical
[4] = nominal 30 mg/kg
Description: The animals used in this study were Sprague-Dawley, Crl: CD®BR albino rats. All animals were supplied by Charles River UK Ltd (Margate, Kent, UK). Animals were in the weight range 200-260 g and were approximately 2 months old. Rats were given a unique identity number and were identified by unique tail markings plus cage location.
The dose groups were as follows: 4 female were given an oral dose and 4 female were given an intravenous dose.
Dose formulations were prepared in an appropriate matrix; intravenous doses were prepared in NP3S, whilst oral doses were prepared in Labrasol:water (1:1 v/v).

CO/N=C1\C[C@@H](CO)N(C(=O)c2ccc(-c3ccccc3C)cc2)C1 [(3E,5S)-5-(hydroxymethyl)-1-[(2′-methyl-1,1′-biphenyl-4-yl)carbonyl]pyrrolidin-3-one O-methyloxime, reference compound]
inhibition of uterine contraction (in words) ([1]; any time during the 170-180 minutes observation): no inhibition of uterine contraction

CO/N=C1/C[C@@H](CO)N(C(=O)c2ccc(-c3ccccc3C)cc2)C1 [(3Z,5S)-5-(hydroxymethyl)-1-[(2′-methyl-1,1′-biphenyl-4-yl)carbonyl]pyrrolidin-3-one O-methyloxime]
Uterine contractions inhibition ([1]; 5 to 15 min after administration): 15% | Uterine contractions inhibition ([1]; 170-180 minutes after administration): 42% | interconversion to E-isomer during dose preparation or administration [2]: no detectable interconversion | Dissolves in: ([3]; solvent DIPE, hot): 40 vol | Dissolves in: ([3]; solvent IPA, hot): 4 vol | Dissolves in: ([3]; solvent MIBK, hot): 4 vol | Dissolves in: ([3]; solvent THF, cold): 4 vol | Dissolves in: ([3]; solvent heptanes): insoluble in 20 vol | Dissolves in: ([3]; solvent tBuOH, hot): 6 vol | Dissolves in: ([3]; solvent toluene, cold): 2 vol

CO/N=C1/C[C@@H](CO)N(C(=O)c2ccc(-c3ccccc3C)cc2)C1 [[^14C]-(3Z,5S)-5-(hydroxymethyl)-1-[(2′-methyl-1,1′-biphenyl-4-yl)carbonyl]pyrrolidin-3-one O-methyloxime]
isomeric interconversion in vivo ([4]; female rats, oral or intravenous dose): no detectable isomeric interconversion | presence of [14C]-E-isomer in plasma ([4]; rat plasma up to 6 hours after oral or intravenous administration): no evidence
